# Reference: patent US20220249463A1, “METHODS OF ALTERING CARDIAC REMODELING USING COMPOUNDS THAT PROMOTE GLUCOSE OXIDATION” (IMBRIA PHARMACEUTICALS, INC., priority 2019, published 2022)
# Test system: TAC mice
# Test: TAC mice: left ventricular pressure with Mikro-tip catheter
# Type: in vivo
# Settings: end of 6-week treatment
compound,measurement,setting,value
"COc1ccc(CN2CCN(CCOC(=O)c3cccnc3)CC2)c(OC)c1OC [CV-8972, 2-(4-(2,3,4-trimethoxybenzyl)piperazin-1-yl)ethyl nicotinate]",+dp/dtm,,4541±395 mm Hg/sec
same,-dp/dtm,,−4126±339 mm Hg/sec
same,left ventricular developed pressure (LVDP),"TMZ 6, NA 2.4, CV-8814 7.5, CV-8972 10 mg/kg/day",116±9 mm Hg
